# In PMC11278568, “Implementation of Spore Display in Paenibacillus polymyxa with Different Hydrolytic Enzymes” (Microorganisms, 2024):
# Assays:
# [1] = molecular target: T1, Lip3 (Paenibacillus polymyxa, UniProt A0ABX2ZB39); experiment: p-nitrophenol release, […] nm, […] h; assay type: cell-based; settings: enzyme displayed on spores (immobilised), OD600 1; 1 mM substrate; 50 mM Tris-HCl pH 7.5; 4-70 °C
# T1 construct: gene A7312_04500; fused via GGGGGSGGGGG linker to P. polymyxa CotE spore-coat anchor; gene amplified from DSM 365 genome (CP141264); printed NF024107.3 is a family model
# T1 sequence (A0ABX2ZB39 1-335): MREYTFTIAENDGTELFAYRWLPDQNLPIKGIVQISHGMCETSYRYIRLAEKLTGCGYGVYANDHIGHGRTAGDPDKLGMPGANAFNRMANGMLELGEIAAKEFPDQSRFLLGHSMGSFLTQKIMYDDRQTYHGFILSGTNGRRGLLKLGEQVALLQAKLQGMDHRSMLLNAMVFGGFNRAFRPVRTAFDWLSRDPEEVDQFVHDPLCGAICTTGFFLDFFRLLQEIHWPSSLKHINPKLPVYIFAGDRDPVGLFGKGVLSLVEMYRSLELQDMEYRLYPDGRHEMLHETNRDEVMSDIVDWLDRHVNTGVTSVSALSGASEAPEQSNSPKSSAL
# [2] = p-nitrophenol release, […] nm, […] h; assay type: cell-based, Paenibacillus polymyxa; settings: enzyme displayed on spores (immobilised), OD600 1; 1 mM substrate; 50 mM Tris-HCl pH 7.5; 4-70 °C; side activity of the synthase
compound,measurement,setting,value
"CCCCCCCC(=O)Oc1ccc([N+](=O)[O-])cc1 [C8, 4-Nitrophenyl-octanoate]","p-nitrophenol release, 410 nm, 1 h",[1],The displayed Lip3 showed higher hydrolysis activity with rising temperature
same,"p-nitrophenol release, 410 nm, 1 h",[2],"this enzyme showed hydrolytic activity for p-nitrophenyl caprylate (pNPC, C8)"
